Reference: patent publication US20230265151A1, “GIP/GLP1 CO-AGONIST COMPOUNDS” (priority 2020, published 2023)
Where two headings read alike, the source gives them in different places.

How the values were obtained:
[1] = target: T1, human Gcg receptor (hGcgR) (Homo sapiens, UniProt P47871); experiment: [125I]-Glucagon binding, SPA with membranes of HEK293 cells expressing hGcgR; conditions: human GcgR; geometric mean (SEM, n); read-out: Binding Affinity Ki, nM (SEM, n) hGCGR
T1 construct: expressed in transfected cells; crude membranes

[2] = target: hGLP-1R (Homo sapiens, UniProt P43220); experiment: Functional cAMP formation (HTRF) in HEK-293 clonal cells expressing hGLP-1R, 0.1% bovine casein, without or with 1.0% human serum albumin; type: cell-based; set-up: expressed in transfected cells; conditions: for Emax: read-out: hGLP-1R Emax, % ± SEM; for EC50: geometric mean, read-out: hGLP-1R EC50, nM (SEM, n)
Outline: (§1)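 Cells were stimulated with peptide for 30 min at 37° C, then intracellular cAMP was measured by competitive HTRF (665/620 nm ratio) and converted to nM using a cAMP standard curve. Relative EC50 and Emax came from four-parameter logistic fits of percent maximal response against peptide concentration.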

[3] = target: T2, hGCGR (Homo sapiens, UniProt P47871); experiment: Functional cAMP formation (HTRF) in HEK-293 clonal cells expressing hGCGR, 0.1% bovine casein, without or with 1.0% human serum albumin; type: cell-based; conditions: read-out: hGCGR EC50, nM (SEM, n)
T2 construct: expressed in transfected cells
Outline: as §1

[4] = target: T3, hGIPR (Homo sapiens, UniProt P48546); experiment: Functional cAMP formation (HTRF) in HEK-293 clonal cells expressing hGIPR, 0.1% bovine casein, without or with 1.0% human serum albumin; type: cell-based; conditions: for Emax: read-out: hGIPR Emax, % ± SEM; for EC50: read-out: hGIPR EC50, nM (SEM, n)
T3 construct: expressed in transfected cells
T3 sequence (P48546 22-466): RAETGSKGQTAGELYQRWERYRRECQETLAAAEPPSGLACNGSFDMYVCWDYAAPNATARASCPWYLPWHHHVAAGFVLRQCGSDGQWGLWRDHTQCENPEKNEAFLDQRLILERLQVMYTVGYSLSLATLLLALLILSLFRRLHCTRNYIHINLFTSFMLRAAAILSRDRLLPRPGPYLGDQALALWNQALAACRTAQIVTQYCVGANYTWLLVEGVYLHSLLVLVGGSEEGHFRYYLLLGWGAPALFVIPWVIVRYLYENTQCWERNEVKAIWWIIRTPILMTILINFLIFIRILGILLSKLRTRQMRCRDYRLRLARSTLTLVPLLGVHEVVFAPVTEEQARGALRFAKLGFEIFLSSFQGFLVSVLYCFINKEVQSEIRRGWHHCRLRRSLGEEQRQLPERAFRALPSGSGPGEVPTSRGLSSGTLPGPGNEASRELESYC
Outline: as §1

[5] = cAMP, incubated at 37° C., 0.1% bovine casein (no human serum albumin)
[6] = 0.1% bovine casein and 1.0% human serum albumin, 37° C., geometric mean
[7] = cAMP, incubated at 37° C., 0.1% bovine casein (no human serum albumin), geometric mean
[8] = HEK293, 0.1% bovine casein and 1.0% human serum albumin, 37° C., percent of maximal response to GIP(1-42)NH2
[9] = 0.1% bovine casein and 1.0% human serum albumin, 37° C.
[10] = cAMP, 37° C., 0.1% bovine casein (no human serum albumin), geometric mean
[11] = cAMP, 37° C., 0.1% bovine casein and 1.0% human serum albumin, geometric mean (SEM, n)

Chain of hGLP-1R (P43220 24-463): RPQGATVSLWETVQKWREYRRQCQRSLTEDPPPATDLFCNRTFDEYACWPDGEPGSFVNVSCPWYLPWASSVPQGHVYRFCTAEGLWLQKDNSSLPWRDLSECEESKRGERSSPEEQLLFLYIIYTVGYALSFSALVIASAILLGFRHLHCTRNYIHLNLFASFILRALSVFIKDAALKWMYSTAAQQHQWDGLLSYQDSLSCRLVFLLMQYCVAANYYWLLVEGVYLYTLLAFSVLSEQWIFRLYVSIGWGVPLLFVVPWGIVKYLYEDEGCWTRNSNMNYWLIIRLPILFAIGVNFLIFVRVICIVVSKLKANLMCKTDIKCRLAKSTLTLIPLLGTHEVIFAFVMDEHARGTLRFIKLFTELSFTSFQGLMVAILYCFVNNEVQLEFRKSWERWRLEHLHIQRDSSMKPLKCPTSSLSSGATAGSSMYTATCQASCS
T2 sequence (P47871 26-477): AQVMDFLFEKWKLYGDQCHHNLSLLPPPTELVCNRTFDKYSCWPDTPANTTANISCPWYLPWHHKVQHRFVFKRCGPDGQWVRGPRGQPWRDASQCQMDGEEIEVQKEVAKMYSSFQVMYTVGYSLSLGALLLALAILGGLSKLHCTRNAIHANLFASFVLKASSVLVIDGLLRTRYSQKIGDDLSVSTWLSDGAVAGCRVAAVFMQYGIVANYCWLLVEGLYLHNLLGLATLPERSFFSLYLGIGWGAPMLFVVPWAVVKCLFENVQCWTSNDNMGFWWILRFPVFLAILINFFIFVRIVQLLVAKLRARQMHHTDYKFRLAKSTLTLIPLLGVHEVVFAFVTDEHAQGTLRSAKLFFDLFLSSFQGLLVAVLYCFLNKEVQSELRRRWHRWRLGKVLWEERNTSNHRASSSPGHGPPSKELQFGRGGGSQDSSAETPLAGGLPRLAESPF
T1 sequence (P47871 26-477): as above

Row | Compound | Ki [1] [nM] | Emax ([2]; HEK293, 0.1% bovine casein and 1.0% human serum albumin, 37° C., percent of maximal response to GLP-1(7-36)NH2) [%] | Emax ([2]; HEK293, percent of maximal response to GLP-1(7-36)NH2, 37° C., 0.1% bovine casein, arithmetic mean) [%] | EC50 [2, 5] [nM] | EC50 [3, 6] [nM] | EC50 [3, 7] [nM] | Emax [4, 8] [%] | Emax ([4]; HEK293, percent of maximal response to GIP(1-42)NH2, 37° C., 0.1% bovine casein, arithmetic mean) [%] | EC50 [4, 7] [nM] | EC50 [2, 9] [nM] | EC50 [4, 6] [nM] | Emax ([2]; HEK293, cAMP, 37° C., 0.1% bovine casein and 1.0% human serum albumin, percent of maximal response to GLP-1(7-36)NH2) [%] | EC50 ([2]; cAMP, 37° C., 0.1% bovine casein (no human serum albumin)) [nM] | EC50 [3, 10] [nM] | EC50 [3, 11] [nM] | Emax ([4]; HEK293, cAMP, 37° C., 0.1% bovine casein and 1.0% human serum albumin, percent of maximal response to GIP(1-42)NH2) [%] | EC50 [4, 10] [nM] | EC50 [4, 11] [nM]
1 | CC[C@H](C)[C@H](NC(=O)[C@H](CC(C)C)NC(=O)[C@](C)(Cc1ccccc1)NC(=O)[C@@H](CCC(=O)O)NC(=O)[C@@H](NC(=O)[C@H](Cc1ccccc1)NC(=O)[C@H](CCC(=O)O)NC(=O)C(C)(C)NC(=O)[C@H](CCC(N)=O)NC(=O)[C@H](C)NC(=O)[C@H](CCCCNC(=O)COCCOCCNC(=O)COCCOCCNC(=O)CC[C@H](NC(=O)CCCCCCCCCCCCC(=O)O)C(=O)O)NC(=O)[C@H](CCCN)NC(=O)[C@H](CC(=O)O)NC(=O)[C@H](CC(C)C)NC(=O)[C@](C)(CC(C)C)NC(=O)[C@@H](NC(=O)[C@H](CO)NC(=O)[C@H](Cc1ccncc1)NC(=O)[C@H](CC(=O)O)NC(=O)[C@H](CO)NC(=O)[C@@H](NC(=O)[C@](C)(Cc1ccccc1)NC(=O)[C@@H](NC(=O)CNC(=O)[C@H](CCC(=O)O)NC(=O)C(C)(C)NC(=O)[C@@H](N)Cc1ccc(O)cc1)[C@@H](C)O)[C@@H](C)O)[C@@H](C)CC)[C@@H](C)CC)C(=O)N[C@@H](CCC(=O)O)C(=O)NCC(=O)NCC(=O)N[C@@H](CCCCNC(=O)COCCOCCNC(=O)COCCOCCNC(=O)CC[C@H](NC(=O)CCCCCCCCCCCCC(=O)O)C(=O)O)C(=O)N[C@@H](CO)C(=O)N[C@@H](CO)C(=O)NCC(=O)N[C@@H](C)C(=O)N1CCC[C@H]1C(=O)N1CCC[C@H]1C(=O)N1CCC[C@H]1C(=O)N[C@@H](CO)C(N)=O [Example 48] | > 966 | 111 | 87.8 ± 6.25 | 1 | > 9950 | > 9950 | 90.8 | 91.6 ± 3.38 | 0.0182 | – | – | – | – | – | – | – | – | –
2 | CC[C@H](C)[C@H](NC(=O)[C@H](CC(C)C)NC(=O)[C@](C)(Cc1ccc(O)cc1)NC(=O)[C@@H](CCC(=O)O)NC(=O)[C@@H](NC(=O)[C@H](Cc1ccccc1)NC(=O)[C@H](CCC(=O)O)NC(=O)C(C)(C)NC(=O)[C@H](CCC(N)=O)NC(=O)[C@H](C)NC(=O)[C@H](CCCCNC(=O)COCCOCCNC(=O)COCCOCCNC(=O)CC[C@H](NC(=O)CCCCCCCCCCC(=O)O)C(=O)O)NC(=O)[C@H](CCCN)NC(=O)[C@H](CC(=O)O)NC(=O)[C@H](CC(C)C)NC(=O)[C@](C)(CC(C)C)NC(=O)[C@@H](NC(=O)[C@H](CO)NC(=O)[C@H](Cc1ccncc1)NC(=O)[C@H](CC(=O)O)NC(=O)[C@H](CO)NC(=O)[C@@H](NC(=O)[C@](C)(Cc1ccccc1F)NC(=O)[C@@H](NC(=O)CNC(=O)[C@H](CCC(=O)O)NC(=O)C(C)(C)NC(=O)[C@@H](N)Cc1ccc(O)cc1)[C@@H](C)O)[C@@H](C)O)[C@@H](C)CC)[C@@H](C)CC)C(=O)N[C@@H](CCC(=O)O)C(=O)NCC(=O)NCC(=O)N[C@@H](CCCCNC(=O)COCCOCCNC(=O)COCCOCCNC(=O)CC[C@H](NC(=O)CCCCCCCCCCC(=O)O)C(=O)O)C(=O)N[C@@H](CO)C(=O)N[C@@H](CO)C(=O)NCC(=O)N[C@@H](C)C(=O)N1CCC[C@H]1C(=O)N1CCC[C@H]1C(=O)N1CCC[C@H]1C(=O)N[C@@H](CO)C(N)=O [Example 6] | > 969 | – | – | – | > 9950 | > 9950 | 89.4 ± 1.74 | – | – | 4.19 | 0.0823 | – | – | – | – | – | – | –
3 | CC[C@H](C)[C@H](NC(=O)[C@H](CC(C)C)NC(=O)[C@](C)(Cc1ccc(O)cc1)NC(=O)[C@@H](CCC(=O)O)NC(=O)[C@@H](NC(=O)[C@H](Cc1ccccc1)NC(=O)[C@H](CCC(=O)O)NC(=O)C(C)(C)NC(=O)[C@H](CCC(N)=O)NC(=O)[C@H](C)NC(=O)[C@H](CCCCNC(=O)CC[C@H](NC(=O)COCCOCCNC(=O)COCCOCCNC(=O)CCCCCCCCCCCCC(=O)O)C(=O)O)NC(=O)[C@H](CCCN)NC(=O)[C@H](CC(=O)O)NC(=O)[C@H](CC(C)C)NC(=O)[C@](C)(CC(C)C)NC(=O)[C@@H](NC(=O)[C@H](CO)NC(=O)[C@H](Cc1ccncc1)NC(=O)[C@H](CC(=O)O)NC(=O)[C@H](CO)NC(=O)[C@@H](NC(=O)[C@](C)(Cc1ccccc1F)NC(=O)[C@@H](NC(=O)CNC(=O)[C@H](CCC(=O)O)NC(=O)C(C)(C)NC(=O)[C@@H](N)Cc1ccc(O)cc1)[C@@H](C)O)[C@@H](C)O)[C@@H](C)CC)[C@@H](C)CC)C(=O)N[C@@H](CCC(=O)O)C(=O)NCC(=O)NCC(=O)N[C@@H](CCCCNC(=O)CC[C@H](NC(=O)COCCOCCNC(=O)COCCOCCNC(=O)CCCCCCCCCCCCC(=O)O)C(=O)O)C(=O)N[C@@H](CO)C(=O)N[C@@H](CO)C(=O)NCC(=O)N[C@@H](C)C(=O)N1CCC[C@H]1C(=O)N1CCC[C@H]1C(=O)N1CCC[C@H]1C(=O)N[C@@H](CO)C(N)=O [Example 41] | > 957 | – | – | 0.691 | > 9950 | > 9950 | 88.5 ± 0.638 | – | 0.0108 | 27.2 | 0.405 | – | – | – | – | – | – | –
4 | CC[C@H](C)[C@H](NC(=O)[C@H](CC(C)C)NC(=O)[C@](C)(Cc1ccc(O)cc1)NC(=O)[C@@H](CCC(=O)O)NC(=O)[C@@H](NC(=O)[C@H](Cc1ccccc1)NC(=O)[C@H](CCC(=O)O)NC(=O)C(C)(C)NC(=O)[C@H](CCC(N)=O)NC(=O)[C@H](C)NC(=O)[C@H](CCCCNC(=O)COCCOCCNC(=O)CC[C@H](NC(=O)CCCCCCCCCCCCC(=O)O)C(=O)O)NC(=O)[C@H](CCCN)NC(=O)[C@H](CC(=O)O)NC(=O)[C@H](CC(C)C)NC(=O)[C@](C)(CC(C)C)NC(=O)[C@@H](NC(=O)C(C)(C)NC(=O)[C@H](Cc1ccncc1)NC(=O)[C@H](CC(=O)O)NC(=O)[C@H](CO)NC(=O)[C@@H](NC(=O)[C@](C)(Cc1ccccc1F)NC(=O)[C@@H](NC(=O)CNC(=O)[C@H](CCC(=O)O)NC(=O)C(C)(C)NC(=O)[C@@H](N)Cc1ccc(O)cc1)[C@@H](C)O)[C@@H](C)O)[C@@H](C)CC)[C@@H](C)CC)C(=O)N[C@@H](CCCCNC(=O)COCCOCCNC(=O)CC[C@H](NC(=O)CCCCCCCCCCCCC(=O)O)C(=O)O)C(=O)NCC(=O)NCC(=O)N1CCC[C@H]1C(=O)N[C@@H](CO)C(=O)N[C@@H](CO)C(=O)NCC(=O)N[C@@H](C)C(=O)N1CCC[C@H]1C(=O)N1CCC[C@H]1C(=O)N1CCC[C@H]1C(=O)N[C@@H](CO)C(N)=O [Example 337] | > 957 | – | – | – | – | – | – | – | – | – | – | 100 | 0.444 | > 10100 | > 10100 | 86.8 | 0.0151 | 2.65
